# Assay results published in PubChem BioAssay AID2060907 (Molecular Pharmacology Branch, DTP, NCI, 2025).
# System: 388556-164-R-J1-PDC complex spheroid viability
# Assay: Anticancer human tumor 388556-164-R-J1-PDC patient-derived colon adenocarcinoma cell line growth inhibition [RAS]
# Details: for IC50: curve of first compound; for viability, T/C: stronger effect = lower value
# Summary of the method: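 Multi-cell-type spheroids: tumor cells plus HUVEC endothelial cells and mesenchymal stem cells. RAS-pathway inhibitors were combined with targeted agents, each dosed in half-log steps down from clinical Cmax, or from 10 microM when Cmax was unknown.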
# [1] = second compound 0.00316 µM, first compound 0.0316 µM
# [2] = second compound 0.00316 µM, first compound 0.1 µM
# [3] = second compound 0.01 µM, first compound 0.0316 µM
# [4] = second compound 0.01 µM, first compound 0.1 µM
# [5] = second compound 0.0316 µM, first compound 0.0316 µM
# [6] = second compound 0.0316 µM, first compound 0.1 µM
# [7] = second compound 0.1 µM, first compound 0.0316 µM
# [8] = second compound 0.1 µM, first compound 0.1 µM
# [9] = second compound 0.316 µM, first compound 0.0316 µM
# [10] = second compound 0.316 µM, first compound 0.1 µM
# [11] = second compound 1 µM, first compound 0.0316 µM
# [12] = second compound 1 µM, first compound 0.1 µM
# 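Further: spheroids exposed to compound for 7 days before readout.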
# 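Wherever viability, T/C is given: 100% = DMSO vehicle control luminescence.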
smiles,measurement,setting,value
CC(C)NCC(C(=O)N1CCN(c2ncnc3c2C(C)CC3O)CC1)c1ccc(Cl)cc1 (centres undefined) + C=CC(=O)N1CCN(c2nc(OCC3CCCN3C)nc3c(F)c(-c4nc(N)cc(C)c4C(F)(F)F)c(Cl)cc23)C(C)C1,IC50,second compound 0.00316 µM,> 10000 nM
same,IC50,second compound 0.01 µM,> 10000 nM
same,IC50,second compound 0.0316 µM,> 10000 nM
same,IC50,second compound 0.1 µM,> 10000 nM
same,IC50,second compound 0.316 µM,> 10000 nM
same,IC50,second compound 1 µM,> 10000 nM
same,"viability, T/C",[1],117%
same,"viability, T/C",[2],116%
same,"viability, T/C","second compound 0.00316 µM, first compound 0.316 µM",107%
same,"viability, T/C","second compound 0.00316 µM, first compound 1 µM",95.5%
same,"viability, T/C","second compound 0.00316 µM, first compound 3.16 µM",102%
same,"viability, T/C","second compound 0.00316 µM, first compound 10 µM",102%
same,"viability, T/C",[3],106%
same,"viability, T/C",[4],110%
same,"viability, T/C","second compound 0.01 µM, first compound 0.316 µM",103%
same,"viability, T/C","second compound 0.01 µM, first compound 1 µM",108%
same,"viability, T/C","second compound 0.01 µM, first compound 3.16 µM",90.9%
same,"viability, T/C","second compound 0.01 µM, first compound 10 µM",105%
same,"viability, T/C",[5],97.2%
same,"viability, T/C",[6],113%
same,"viability, T/C","second compound 0.0316 µM, first compound 0.316 µM",110%
same,"viability, T/C","second compound 0.0316 µM, first compound 1 µM",103%
same,"viability, T/C","second compound 0.0316 µM, first compound 3.16 µM",105%
same,"viability, T/C","second compound 0.0316 µM, first compound 10 µM",94.2%
same,"viability, T/C",[7],108%
same,"viability, T/C",[8],103%
same,"viability, T/C","second compound 0.1 µM, first compound 0.316 µM",99.5%
same,"viability, T/C","second compound 0.1 µM, first compound 1 µM",106%
same,"viability, T/C","second compound 0.1 µM, first compound 3.16 µM",95.9%
same,"viability, T/C","second compound 0.1 µM, first compound 10 µM",91%
same,"viability, T/C",[9],106%
same,"viability, T/C",[10],112%
same,"viability, T/C","second compound 0.316 µM, first compound 0.316 µM",105%
same,"viability, T/C","second compound 0.316 µM, first compound 1 µM",99.3%
same,"viability, T/C","second compound 0.316 µM, first compound 3.16 µM",111%
same,"viability, T/C","second compound 0.316 µM, first compound 10 µM",99.1%
same,"viability, T/C",[11],106%
same,"viability, T/C",[12],104%
same,"viability, T/C","second compound 1 µM, first compound 0.316 µM",118%
same,"viability, T/C","second compound 1 µM, first compound 1 µM",99.8%
same,"viability, T/C","second compound 1 µM, first compound 3.16 µM",100%
same,"viability, T/C","second compound 1 µM, first compound 10 µM",99.4%
CC(C)n1nc(-c2ccc3oc(N)nc3c2)c2c(N)ncnc21 + C=CC(=O)N1CCN(c2nc(OCC3CCCN3C)nc3c(F)c(-c4nc(N)cc(C)c4C(F)(F)F)c(Cl)cc23)C(C)C1,IC50,second compound 0.00316 µM,69 nM
same,IC50,second compound 0.01 µM,74.3 nM
same,IC50,second compound 0.0316 µM,64.6 nM
same,IC50,second compound 0.1 µM,77.2 nM
same,IC50,second compound 0.316 µM,75 nM
same,IC50,second compound 1 µM,51.4 nM
same,"viability, T/C","second compound 0.00316 µM, first compound 0.000316 µM",102%
same,"viability, T/C","second compound 0.00316 µM, first compound 0.001 µM",98.2%
same,"viability, T/C","second compound 0.00316 µM, first compound 0.00316 µM",91.9%
same,"viability, T/C","second compound 0.00316 µM, first compound 0.01 µM",74.8%
same,"viability, T/C",[1],66.5%
same,"viability, T/C",[2],42.7%
same,"viability, T/C","second compound 0.01 µM, first compound 0.000316 µM",100%
same,"viability, T/C","second compound 0.01 µM, first compound 0.001 µM",95.3%
same,"viability, T/C","second compound 0.01 µM, first compound 0.00316 µM",95.3%
same,"viability, T/C","second compound 0.01 µM, first compound 0.01 µM",76.7%
same,"viability, T/C",[3],56%
same,"viability, T/C",[4],47.8%
same,"viability, T/C","second compound 0.0316 µM, first compound 0.000316 µM",104%
same,"viability, T/C","second compound 0.0316 µM, first compound 0.001 µM",95.6%
same,"viability, T/C","second compound 0.0316 µM, first compound 0.00316 µM",80.1%
same,"viability, T/C","second compound 0.0316 µM, first compound 0.01 µM",76%
same,"viability, T/C",[5],59.6%
same,"viability, T/C",[6],43.5%
same,"viability, T/C","second compound 0.1 µM, first compound 0.000316 µM",96.2%
same,"viability, T/C","second compound 0.1 µM, first compound 0.001 µM",108%
same,"viability, T/C","second compound 0.1 µM, first compound 0.00316 µM",83.2%
same,"viability, T/C","second compound 0.1 µM, first compound 0.01 µM",84.5%
same,"viability, T/C",[7],63%
same,"viability, T/C",[8],46.1%
same,"viability, T/C","second compound 0.316 µM, first compound 0.000316 µM",99.7%
same,"viability, T/C","second compound 0.316 µM, first compound 0.001 µM",98%
same,"viability, T/C","second compound 0.316 µM, first compound 0.00316 µM",92.2%
same,"viability, T/C","second compound 0.316 µM, first compound 0.01 µM",79.6%
same,"viability, T/C",[9],59.4%
same,"viability, T/C",[10],46.9%
same,"viability, T/C","second compound 1 µM, first compound 0.000316 µM",90.6%
same,"viability, T/C","second compound 1 µM, first compound 0.001 µM",99.9%
same,"viability, T/C","second compound 1 µM, first compound 0.00316 µM",95.2%
same,"viability, T/C","second compound 1 µM, first compound 0.01 µM",81.1%
same,"viability, T/C",[11],55.4%
same,"viability, T/C",[12],43.1%
